These results are taken from PubChem BioAssay AID252 (DTP/NCI, 2004).

“And” between values parts separate entries of the source, which are not always exact repeats. Equal entries are not always repeated. Toxic doses and inconclusive results are not listed.

For this assay, the system named is BDF1 mice, intracerebral L1210 leukemia, survival T/C. Description: NCI In Vivo Anticancer Drug Screen. Data for tumor model L1210 Leukemia (intracerebral) in B6D2F1 (BDF1) mice. The note with it: higher = longer survival. An outline of the steps:
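Survival measured in treated and vehicle-control tumour-bearing mice; value = T/C.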

Setting [1] is: endpoint: mean survival time, dose: 1.0 mg/kg/injection, schedule: Q01DX009 (ip), vehicle: saline.
[2] abbreviates: endpoint: mean survival time, dose: 2.0 mg/kg/injection, schedule: Q01DX009 (ip), vehicle: saline.

For `N[C@@H](Cc1ccc(N(CCCl)CCCl)cc1)C(=O)O`, the T/C by setting is: under setting [1], 111 % of control; (endpoint: mean survival time, dose: 1.0 mg/kg/injection, schedule: Q01DX Z (ip), vehicle: carboxymethylcellulose (CMC)) 98 % of control; (endpoint: mean survival time, dose: 1.13 mg/kg/injection, schedule: Q01DX001 (ip), vehicle: carboxymethylcellulose (CMC)) 104 % of control and 97 % of control; under setting [2], 114 % of control; (endpoint: mean survival time, dose: 2.0 mg/kg/injection, schedule: Q01DX Z (ip), vehicle: carboxymethylcellulose (CMC)) 111 % of control; (endpoint: mean survival time, dose: 2.25 mg/kg/injection, schedule: Q01DX001 (ip), vehicle: carboxymethylcellulose (CMC)) 103 % of control and 104 % of control. Further, the T/C was 103 % of control and 108 % of control (endpoint: mean survival time, dose: 3.0 mg/kg/injection, schedule: Q01DX001 (ip), vehicle: carboxymethylcellulose (CMC)); 104 % of control and 110 % of control (endpoint: mean survival time, dose: 4.5 mg/kg/injection, schedule: Q01DX001 (ip), vehicle: carboxymethylcellulose (CMC)); 102 % of control (endpoint: mean survival time, dose: 8.0 mg/kg/injection, schedule: Q01DX Z (ip), vehicle: carboxymethylcellulose (CMC)); 119 % of control and 120 % of control (endpoint: mean survival time, dose: 9.0 mg/kg/injection, schedule: Q01DX001 (ip), vehicle: carboxymethylcellulose (CMC)); 111 % of control and 88 % of control (endpoint: mean survival time, dose: 12.5 mg/kg/injection, schedule: Q01DX Z (ip), vehicle: carboxymethylcellulose (CMC)); 155 % of control (endpoint: mean survival time, dose: 14.0 mg/kg/injection, schedule: Q01DX001 (ip), vehicle: carboxymethylcellulose (CMC)). Further, the T/C was 122 % of control (endpoint: mean survival time, dose: 18.0 mg/kg/injection, schedule: Q01DX001 (ip), vehicle: carboxymethylcellulose (CMC)); 88 % of control (endpoint: mean survival time, dose: 25.0 mg/kg/injection, schedule: Q01DX Z (ip), vehicle: carboxymethylcellulose (CMC)); 115 % of control (endpoint: mean survival time, dose: 29.0 mg/kg/injection, schedule: Q01DX001 (ip), vehicle: carboxymethylcellulose (CMC)).

As for `O=P1(N(CCCl)CCCl)NCCCO1` (stereo not given), the T/C (endpoint: mean survival time, dose: 17.5 mg/kg/injection, schedule: Q01DX Z (ip), vehicle: saline) was 116 % of control; the T/C (endpoint: mean survival time, dose: 22.0 mg/kg/injection, schedule: Q01DX015 (ip), vehicle: saline) was 112 % of control; the T/C (endpoint: mean survival time, dose: 25.0 mg/kg/injection, schedule: Q01DX Z (ip), vehicle: saline) is 121 % of control; the T/C (endpoint: mean survival time, dose: 28.0 mg/kg/injection, schedule: Q01DX001 (ip), vehicle: saline) was 104 % of control and 118 % of control; the T/C (endpoint: mean survival time, dose: 33.5 mg/kg/injection, schedule: Q01DX015 (ip), vehicle: saline) was 123 % of control; the T/C (endpoint: mean survival time, dose: 39.0 mg/kg/injection, schedule: Q01DX009 (sc), vehicle: saline) is 151 % of control. Moreover, the T/C by setting is: (endpoint: mean survival time, dose: 50.0 mg/kg/injection, schedule: Q01DX001 (ip), vehicle: DMSO) 111 % of control and 119 % of control and 121 % of control; (endpoint: mean survival time, dose: 50.0 mg/kg/injection, schedule: Q01DX001 (ip), vehicle: Klucel (hydroxypropylcellulose) (HPC)) 119 % of control and 121 % of control; (endpoint: mean survival time, dose: 50.0 mg/kg/injection, schedule: Q01DX001 (ip), vehicle: water) 111 % of control; (endpoint: mean survival time, dose: 50.0 mg/kg/injection, schedule: Q08DX002 (ip), vehicle: saline) 115 % of control; (endpoint: mean survival time, dose: 59.0 mg/kg/injection, schedule: Q01DX001 (ip), vehicle: saline) 117 % of control; (endpoint: mean survival time, dose: 65.0 mg/kg/injection, schedule: Q01DX009 (sc), vehicle: saline) 151 % of control. Moreover, the T/C (endpoint: mean survival time, dose: 100.0 mg/kg/injection, schedule: Q01DX001 (ip), vehicle: water) was 112 % of control; the T/C (endpoint: mean survival time, dose: 100.0 mg/kg/injection, schedule: Q01DX Z (ip), vehicle: saline) is 110 % of control; the T/C (endpoint: mean survival time, dose: 100.0 mg/kg/injection, schedule: Q08DX002 (ip), vehicle: saline) was 117 % of control; the T/C (endpoint: mean survival time, dose: 108.0 mg/kg/injection, schedule: Q01DX009 (sc), vehicle: saline) is 110 % of control; the T/C (endpoint: mean survival time, dose: 118.0 mg/kg/injection, schedule: Q01DX001 (ip), vehicle: saline) is 158 % of control; the T/C (endpoint: mean survival time, dose: 200.0 mg/kg/injection, schedule: Q01DX001 (ip), vehicle: DMSO) was 110 % of control. Moreover, the T/C is, setting by setting: (endpoint: mean survival time, dose: 200.0 mg/kg/injection, schedule: Q01DX001 (ip), vehicle: Klucel (hydroxypropylcellulose) (HPC)) 119 % of control; (endpoint: mean survival time, dose: 200.0 mg/kg/injection, schedule: Q01DX001 (ip), vehicle: water) 119 % of control; (endpoint: mean survival time, dose: 230.0 mg/kg/injection, schedule: Q01DX001 (ip), vehicle: saline) 157 % of control; (endpoint: mean survival time, dose: 234.0 mg/kg/injection, schedule: Q01DX001 (ip), vehicle: saline) 168 % of control; (endpoint: mean survival time, dose: 300.0 mg/kg/injection, schedule: Q01DX001 (ip), vehicle: saline) 114 % of control; (endpoint: mean survival time, dose: 400.0 mg/kg/injection, schedule: Q08DX002 (ip), vehicle: saline) 102 % of control. The T/C (endpoint: mean survival time, dose: 468.0 mg/kg/injection, schedule: Q01DX001 (ip), vehicle: saline) was 152 % of control and 172 % of control; the T/C (endpoint: mean survival time, dose: 500.0 mg/kg/injection, schedule: Q01DX001 (ip), vehicle: saline) is 106 % of control; the T/C (endpoint: mean survival time, dose: 560.0 mg/kg/injection, schedule: Q01DX001 (ip), vehicle: saline) was 151 % of control; the T/C (endpoint: median survival time, dose: 1000.0 mg/kg/injection, schedule: Q01DX001 (oral), vehicle: saline) is 119 % of control; the T/C (endpoint: median survival time, dose: 2000.0 mg/kg/injection, schedule: Q01DX001 (oral), vehicle: saline) was 516 % of control; the T/C (endpoint: median survival time, dose: 8000.0 mg/kg/injection, schedule: Q01DX001 (oral), vehicle: saline) is 45 % of control. Also, for the setting “endpoint: median survival time, dose: 16000.0 mg/kg/injection, schedule: Q01DX001 (oral), vehicle: saline”, the T/C is 43 % of control.

Consider `O=NN(CCCl)C(=O)N[C@H]1CCC[C@@H](O)C1`, for which the T/C is, setting by setting: (endpoint: mean survival time, dose: 12.0 mg/kg/injection, schedule: Q01DX001 (ip), vehicle: saline with Tween-80) 124 % of control; (endpoint: mean survival time, dose: 18.0 mg/kg/injection, schedule: Q01DX001 (ip), vehicle: saline with Tween-80) 164 % of control; (endpoint: mean survival time, dose: 26.0 mg/kg/injection, schedule: Q01DX001 (ip), vehicle: saline with Tween-80) 420 % of control; (endpoint: mean survival time, dose: 40.0 mg/kg/injection, schedule: Q01DX001 (ip), vehicle: saline with Tween-80) 452 % of control; (endpoint: mean survival time, dose: 60.0 mg/kg/injection, schedule: Q01DX001 (ip), vehicle: saline with Tween-80) 303 % of control; (endpoint: mean survival time, dose: 90.0 mg/kg/injection, schedule: Q01DX001 (ip), vehicle: saline with Tween-80) 90 % of control.

`CN(N=O)C(=O)NCCCNC(=O)N(C)N=O`: the T/C is, setting by setting: (endpoint: mean survival time, dose: 150.0 mg/kg/injection, schedule: Q01DX001 (ip), vehicle: carboxymethylcellulose (CMC)) 108 % of control; (endpoint: mean survival time, dose: 300.0 mg/kg/injection, schedule: Q01DX001 (ip), vehicle: carboxymethylcellulose (CMC)) 119 % of control.

Turning to `CCCOC1=C(N2CC2)C(=O)C(OCCC)=C(N2CC2)C1=O`, the T/C (endpoint: mean survival time, dose: 0.25 mg/kg/injection, schedule: Q01DX009 (ip), vehicle: saline) was 105 % of control; the T/C (endpoint: mean survival time, dose: 0.5 mg/kg/injection, schedule: Q01DX005 (ip), vehicle: saline) is 97 % of control; the T/C (endpoint: mean survival time, dose: 0.5 mg/kg/injection, schedule: Q01DX009 (ip), vehicle: saline) is 113 % of control; the T/C (endpoint: mean survival time, dose: 1.0 mg/kg/injection, schedule: Q01DX005 (ip), vehicle: saline) is 101 % of control; the T/C under setting [1] is 104 % of control and 302 % of control; the T/C (endpoint: mean survival time, dose: 2.0 mg/kg/injection, schedule: Q01DX005 (ip), vehicle: saline) is 108 % of control. Also, the T/C reads like this: under setting [2], 111 % of control and 117 % of control; (endpoint: mean survival time, dose: 4.0 mg/kg/injection, schedule: Q01DX005 (ip), vehicle: saline) 106 % of control; (endpoint: mean survival time, dose: 4.0 mg/kg/injection, schedule: Q01DX009 (ip), vehicle: saline) 117 % of control.

`Cc1[nH]c(=O)[nH]c(=O)c1N(CCF)CCCl`: the T/C was 97 % of control (endpoint: mean survival time, dose: 3.5 mg/kg/injection, schedule: Q01DX009 (ip), vehicle: Klucel (hydroxypropylcellulose) (HPC)); 88 % of control (endpoint: mean survival time, dose: 7.0 mg/kg/injection, schedule: Q01DX009 (ip), vehicle: Klucel (hydroxypropylcellulose) (HPC)); 111 % of control (endpoint: mean survival time, dose: 14.0 mg/kg/injection, schedule: Q01DX009 (ip), vehicle: Klucel (hydroxypropylcellulose) (HPC)); 94 % of control (endpoint: mean survival time, dose: 28.0 mg/kg/injection, schedule: Q01DX009 (ip), vehicle: Klucel (hydroxypropylcellulose) (HPC)).

On to `CCN(CC)c1ccc2cc3ccc(=[N+](CC)CC)cc-3oc2c1`, for which the T/C runs as follows: (endpoint: mean survival time, dose: 8.0 mg/kg/injection, schedule: Q01DX001 (ip), vehicle: saline) 97 % of control; (endpoint: mean survival time, dose: 13.0 mg/kg/injection, schedule: Q01DX001 (ip), vehicle: saline) 96 % of control; (endpoint: mean survival time, dose: 19.0 mg/kg/injection, schedule: Q01DX001 (ip), vehicle: saline) 100 % of control.
